Test results as given in the NIST ThermoML archive (doi:10.1016/j.jct.2015.01.001).
± gives the expanded uncertainty stated by the source.

Test: mn = molality of the nth substance listed, in mol/kg
Conditions: Liquid; for viscosity: Falling or rolling sphere viscometry; for mass density: Vibrating tube method

S [hydrogen sulfide] + O=S1(=O)CCCC1
Conditions	mass density [kg/m3]	viscosity [mPa·s]
303.15 K, 86.7 kPa, m1 = 0.389	1257 ± 1	9.33 ± 0.24
303.15 K, 137.1 kPa, m1 = 0.623	1255 ± 1	8.58 ± 0.23
303.15 K, 193.6 kPa, m1 = 0.915	1253 ± 1	7.76 ± 0.21
303.15 K, 230.1 kPa, m1 = 1.128	1251 ± 1	6.88 ± 0.2
303.15 K, 304.1 kPa, m1 = 1.435	1248 ± 1	6.31 ± 0.19
303.15 K, 364.8 kPa, m1 = 1.764	1246 ± 1	5.55 ± 0.17
303.15 K, 401.1 kPa, m1 = 2.032	1244 ± 1	5.09 ± 0.16
303.15 K, 503.2 kPa, m1 = 2.605	1242 ± 1	4.44 ± 0.13
303.15 K, 616.7 kPa, m1 = 3.291	1238 ± 1	3.7 ± 0.1
303.15 K, 738.4 kPa, m1 = 4.17	1237 ± 1	2.95 ± 0.07
303.15 K, 889.7 kPa, m1 = 5.327	1233 ± 1	2.08 ± 0.05
303.15 K, 1040.5 kPa, m1 = 6.929	1230 ± 2	1.47 ± 0.03
313.15 K, 160.8 kPa, m1 = 0.626	1246 ± 1	6.7 ± 0.17
313.15 K, 227 kPa, m1 = 0.884	1242 ± 1	6.03 ± 0.16
313.15 K, 273.9 kPa, m1 = 1.021	1242 ± 1	5.5 ± 0.15
313.15 K, 362.7 kPa, m1 = 1.408	1238 ± 1	5.07 ± 0.13
313.15 K, 419.7 kPa, m1 = 1.723	1236 ± 1	4.54 ± 0.12
313.15 K, 481.3 kPa, m1 = 2.009	1234 ± 1	4.02 ± 0.11
313.15 K, 586.5 kPa, m1 = 2.375	1231 ± 1	3.74 ± 0.09
313.15 K, 718.4 kPa, m1 = 3.078	1228 ± 1	3.07 ± 0.07
313.15 K, 859.9 kPa, m1 = 3.931	1225 ± 1	2.44 ± 0.05
313.15 K, 1035.5 kPa, m1 = 5.164	1223 ± 1	1.8 ± 0.03
323.15 K, 76.1 kPa, m1 = 0.222	1243 ± 1	6.09 ± 0.15
323.15 K, 118.7 kPa, m1 = 0.378	1242 ± 1	5.55 ± 0.15
323.15 K, 190.1 kPa, m1 = 0.579	1239 ± 1	5.16 ± 0.14
323.15 K, 267.2 kPa, m1 = 0.823	1236 ± 1	4.49 ± 0.13
323.15 K, 317.2 kPa, m1 = 1.009	1234 ± 1	4.35 ± 0.12
323.15 K, 430.1 kPa, m1 = 1.389	1229 ± 1	3.74 ± 0.1
323.15 K, 490.4 kPa, m1 = 1.704	1226 ± 1	3.41 ± 0.09
323.15 K, 565.2 kPa, m1 = 1.985	1223 ± 1	3.09 ± 0.07
323.15 K, 688.7 kPa, m1 = 2.348	1220 ± 1	2.86 ± 0.06
323.15 K, 843.7 kPa, m1 = 3.097	1216 ± 1	2.35 ± 0.04
323.15 K, 1009.9 kPa, m1 = 3.97	1215 ± 1	1.89 ± 0.03
333.15 K, 88.3 kPa, m1 = 0.218	1233 ± 1	4.78 ± 0.13
333.15 K, 139.2 kPa, m1 = 0.372	1231 ± 1	4.65 ± 0.12
333.15 K, 219.9 kPa, m1 = 0.571	1228 ± 1	4.29 ± 0.11
333.15 K, 314.1 kPa, m1 = 0.811	1225 ± 1	3.86 ± 0.11
333.15 K, 370.5 kPa, m1 = 0.995	1223 ± 1	3.58 ± 0.1
333.15 K, 505.9 kPa, m1 = 1.368	1219 ± 1	3.17 ± 0.08
333.15 K, 576.7 kPa, m1 = 1.681	1215 ± 1	2.8 ± 0.07
333.15 K, 664 kPa, m1 = 1.959	1212 ± 1	2.55 ± 0.06
333.15 K, 800 kPa, m1 = 2.462	1208 ± 1	2.29 ± 0.05
343.15 K, 96 kPa, m1 = 0.205	1223 ± 1	3.95 ± 0.11
343.15 K, 159.7 kPa, m1 = 0.347	1220 ± 1	3.74 ± 0.1
343.15 K, 253.3 kPa, m1 = 0.563	1218 ± 1	3.5 ± 0.1
343.15 K, 368.1 kPa, m1 = 0.797	1215 ± 1	3.13 ± 0.08
343.15 K, 428.2 kPa, m1 = 0.981	1214 ± 1	2.99 ± 0.07
343.15 K, 590.6 kPa, m1 = 1.347	1211 ± 1	2.65 ± 0.06
343.15 K, 678.9 kPa, m1 = 1.654	1204 ± 1	2.34 ± 0.06
343.15 K, 782.1 kPa, m1 = 1.927	1202 ± 1	2.18 ± 0.05
343.15 K, 914 kPa, m1 = 2.221	1200 ± 1	2.01 ± 0.04
343.15 K, 1119.8 kPa, m1 = 2.876	1196 ± 1	1.65 ± 0.03
353.15 K, 116.1 kPa, m1 = 0.202	1216 ± 1	3.24 ± 0.08
353.15 K, 179.9 kPa, m1 = 0.319	1214 ± 1	3.11 ± 0.08
353.15 K, 288.8 kPa, m1 = 0.546	1210 ± 1	2.69 ± 0.07
353.15 K, 427.9 kPa, m1 = 0.802	1209 ± 1	2.53 ± 0.07
353.15 K, 494.2 kPa, m1 = 0.965	1206 ± 1	2.46 ± 0.06
353.15 K, 683.1 kPa, m1 = 1.324	1199 ± 1	2.2 ± 0.05
353.15 K, 795.9 kPa, m1 = 1.624	1195 ± 1	1.98 ± 0.05
353.15 K, 911.1 kPa, m1 = 1.894	1193 ± 1	1.81 ± 0.04
363.15 K, 131.7 kPa, m1 = 0.195	1208 ± 1	2.71 ± 0.07
363.15 K, 201.9 kPa, m1 = 0.304	1206 ± 1	2.61 ± 0.06
363.15 K, 327.1 kPa, m1 = 0.504	1202 ± 1	2.46 ± 0.06
363.15 K, 494.7 kPa, m1 = 0.767	1199 ± 1	2.21 ± 0.05
363.15 K, 565.7 kPa, m1 = 0.912	1196 ± 1	2.05 ± 0.05
363.15 K, 784.2 kPa, m1 = 1.3	1190 ± 1	1.74 ± 0.04
363.15 K, 928.7 kPa, m1 = 1.591	1185 ± 1	1.5 ± 0.04
363.15 K, 1052.3 kPa, m1 = 1.86	1184 ± 1	1.37 ± 0.03
